From patent US10875876B2, “Cyclized sulfamoylarylamide derivatives and the use thereof as medicaments for the treatment of hepatitis B” (priority 2015, dated 2020)
Where two headings read alike, the source gives them in different places.

What was measured:
HBV = experiment: anti HBV activity, HepG2.117 cell line, intracellular HBV DNA by realtime PCR; assay type: cell-based; conditions: HepG2.117 cell line (Tet-off), 3 days of treatment, intracellular HBV DNA quantified by realtime PCR, read-out: HBV-AVE-HepG2.117 EC50
Procedure: The anti HBV activity was measured using the HepG2.117 cell line, a stable, inducibly HBV producing cell line, which replicates HBV in the absence of doxicycline (Tet-off system). For the antiviral assay, HBV replication was induced, followed by a treatment with serially diluted compound in 96-well plates in duplicate. After 3 days of treatment, the antiviral activity was determined by quantification of intracellular HBV DNA using realtime PCR and an HBV specific primer set and probe.

[1] = Cytotoxicity in HepG2 cells, Resazurin assay; conditions: human, HepG2 cells, TOX-HepG2-4 d CC50 (μM), HepG2 cells incubated for 4 days, viability by Resazurin assay
[2] = Hepatitis B virus, HepG2.117, 72 h

**Q.** With Cc1cccc(CC2(C)COc3c(cn(C)c3C(=O)Nc3ccc(F)c(F)c3)S(=O)(=O)N2)n1 (single isomer, unassigned) [Compound 172a, N-(3,4-difluorophenyl)-3,7-dimethyl-3-[(6-methyl-2-pyridyl)methyl]-1,1-dioxo-2,4-dihydropyrrolo[3,4-b][1,4,5]oxathiazepine-6-carboxamide] as the compound, how does the EC50 (HBV; [2]) read?
**A.** 72 nM

**Q.** What about the CC50 at 4 days [1] of the same compound?
**A.** > 25 µM

**Q.** For Cc1cc(CC2(C)COc3c(cn(C)c3C(=O)Nc3ccc(F)c(F)c3)S(=O)(=O)N2)n(C)n1 (single isomer, unassigned) [Compound 175a, N-(3,4-difluorophenyl)-3-[(2,5-dimethylpyrazol-3-yl)methyl]-3,7-dimethyl-1,1-dioxo-2,4-dihydropyrrolo[3,4-b][1,4,5]oxathiazepine-6-carboxamide], which EC50 (HBV) is on record?
**A.** 21 nM

**Q.** What about the CC50 at 4 days [1] of the same compound?
**A.** > 22.9 µM

**Q.** Which EC50 (HBV; [2]) does the source give for Cc1cc(CC2(C)COc3c(cn(C)c3C(=O)Nc3ccc(F)c(C(F)F)c3)S(=O)(=O)N2)n(C)n1 (single isomer, unassigned) [Compound 176a, N-[3-(difluoromethyl)-4-fluoro-phenyl]-3-[(2,5-dimethylpyrazol-3-yl)methyl]-3,7-dimethyl-1,1-dioxo-2,4-dihydropyrrolo[3,4-b][1,4,5]oxathiazepine-6-carboxamide] here?
**A.** 12 nM

**Q.** What about the CC50 at 4 days [1] of the same compound?
**A.** > 25 µM

**Q.** Which results are given for Cn1cc2c(c1C(=O)Nc1ccc(F)c(F)c1)OCC(C)(Cc1cccnc1)NS2(=O)=O (single isomer, unassigned) [Compound 199a, N-(3,4-difluorophenyl)-3,7-dimethyl-1,1-dioxo-3-(3-pyridylmethyl)-2,4-dihydropyrrolo[3,4-b][1,4,5]oxathiazepine-6-carboxamide]?
**A.** EC50 (HBV): 30 nM; CC50 at 4 days [1]: > 25 µM

**Q.** With Cn1cc2c(c1C(=O)Nc1ccc(F)c(F)c1)OCC(C)(CO)NS2(=O)=O (single isomer, unassigned) [Compound 203a, N-(3,4-difluorophenyl)-3-(hydroxymethyl)-3,7-dimethyl-1,1-dioxo-2,4-dihydropyrrolo[3,4-b][1,4,5]oxathiazepine-6-carboxamide] as the compound, how does the EC50 (HBV; [2]) read?
**A.** 94 nM

**Q.** What about the CC50 at 4 days [1] of the same compound?
**A.** > 25 µM

**Q.** With Cn1cc2c(c1C(=O)Nc1ccnc(Cl)c1)OCC(C)(CO)NS2(=O)=O (single isomer, unassigned) [Compound 204a, N-(2-chloro-4-pyridyl)-3-(hydroxymethyl)-3,7-dimethyl-1,1-dioxo-2,4-dihydropyrrolo[3,4-b][1,4,5]oxathiazepine-6-carboxamide] as the compound, how does the EC50 (HBV; [2]) read?
**A.** > 125 nM

**Q.** And the CC50 at 4 days [1]?
**A.** > 25 µM

**Q.** Which results are given for Cc1cc(NC(=O)c2c3c(cn2C)S(=O)(=O)N[C@@H](C(O)C2CC2)CO3)ccc1F (single isomer, unassigned) [Compound 206a, 3-[cyclopropyl(hydroxy)methyl]-N-(4-fluoro-3-methyl-phenyl)-7-methyl-1,1-dioxo-3,4-dihydro-2H-pyrrolo[3,4-b][1,4,5]oxathiazepine-6-carboxamide]?
**A.** EC50 (HBV; [2]): 13 nM; CC50 at 4 days [1]: > 25 µM

**Q.** For Cn1cc2c(c1C(=O)Nc1ccc(F)c(Cl)c1)OC[C@H](C(O)C1CC1)NS2(=O)=O (single isomer, unassigned) [Compound 207a, N-(3-chloro-4-fluoro-phenyl)-3-[cyclopropyl(hydroxy)methyl]-7-methyl-1,1-dioxo-3,4-dihydro-2H-pyrrolo[3,4-b][1,4,5]oxathiazepine-6-carboxamide], which EC50 (HBV; [2]) is on record?
**A.** 8 nM

**Q.** What about the CC50 at 4 days [1] of the same compound?
**A.** > 25 µM

**Q.** Which EC50 (HBV; [2]) does the source give for Cn1cc2c(c1C(=O)Nc1cc(F)c(F)c(F)c1)OC[C@H](C(O)C1CC1)NS2(=O)=O (single isomer, unassigned) [Compound 208a, 3-[cyclopropyl(hydroxy)methyl]-7-methyl-1,1-dioxo-N-(3,4,5-trifluorophenyl)-3,4-dihydro-2H-pyrrolo[3,4-b][1,4,5]oxathiazepine-6-carboxamide] here?
**A.** 8 nM

**Q.** What about the CC50 at 4 days [1] of the same compound?
**A.** > 25 µM

**Q.** Which EC50 (HBV) does the source give for Cc1cc(CC2(C)COc3c(cn(C)c3C(=O)Nc3ccnc(C(F)F)c3)S(=O)(=O)N2)no1 (single isomer, unassigned) [Compound 209a, N-[2-(difluoromethyl)-4-pyridyl]-3,7-dimethyl-3-[(5-methylisoxazol-3-yl)methyl]-1,1-dioxo-2,4-dihydropyrrolo[3,4-b][1,4,5]oxathiazepine-6-carboxamide] here?
**A.** 60 nM

**Q.** What about the CC50 at 4 days [1] of the same compound?
**A.** > 25 µM

**Q.** Which EC50 (HBV; [2]) does the source give for Cn1cc2c(c1C(=O)Nc1ccc(F)c(C#N)c1)OCC(C)(CO)NS2(=O)=O (single isomer, unassigned) [Compound 210a, N-(3-cyano-4-fluoro-phenyl)-3-(hydroxymethyl)-3,7-dimethyl-1,1-dioxo-2,4-dihydropyrrolo[3,4-b][1,4,5]oxathiazepine-6-carboxamide] here?
**A.** 37 nM

**Q.** And the CC50 at 4 days [1]?
**A.** > 25 µM

**Q.** Which EC50 (HBV) does the source give for Cc1cc(CC2(C)COc3c(cn(C)c3C(=O)Nc3ccnc(Cl)c3)S(=O)(=O)N2)no1 (single isomer, unassigned) [Compound 213a, N-(2-chloro-4-pyridyl)-3,7-dimethyl-3-[(5-methylisoxazol-3-yl)methyl]-1,1-dioxo-2,4-dihydropyrrolo[3,4-b][1,4,5]oxathiazepine-6-carboxamide] here?
**A.** 48 nM

**Q.** What about the CC50 at 4 days [1] of the same compound?
**A.** > 25 µM

**Q.** For Cn1cc2c(c1C(=O)Nc1cc(F)c(F)c(F)c1)OCC(C)(CO)NS2(=O)=O (single isomer, unassigned) [Compound 214a, 3-(hydroxymethyl)-3,7-dimethyl-1,1-dioxo-N-(3,4,5-trifluorophenyl)-2,4-dihydropyrrolo[3,4-b][1,4,5]oxathiazepine-6-carboxamide], which EC50 (HBV) is on record?
**A.** 120 nM

**Q.** What about the CC50 at 4 days [1] of the same compound?
**A.** > 25 µM

**Q.** Which EC50 (HBV) does the source give for Cn1cc2c(c1C(=O)Nc1ccnc(C(F)F)c1)OCC(C)(CO)NS2(=O)=O (single isomer, unassigned) [Compound 215a, N-[2-(difluoromethyl)-4-pyridyl]-3-(hydroxymethyl)-3,7-dimethyl-1,1-dioxo-2,4-dihydropyrrolo[3,4-b][1,4,5]oxathiazepine-6-carboxamide] here?
**A.** 62 nM

**Q.** What about the CC50 at 4 days [1] of the same compound?
**A.** > 25 µM

**Q.** For Cn1ccc(CC2(C)COc3c(cn(C)c3C(=O)Nc3ccnc(C(F)F)c3)S(=O)(=O)N2)n1 (single isomer, unassigned) [Compound 217a, N-[2-(difluoromethyl)-4-pyridyl]-3,7-dimethyl-3-[(1-methylpyrazol-3-yl)methyl]-1,1-dioxo-2,4-dihydropyrrolo[3,4-b][1,4,5]oxathiazepine-6-carboxamide], which EC50 (HBV) is on record?
**A.** 25 nM

**Q.** What about the CC50 at 4 days [1] of the same compound?
**A.** > 25 µM

**Q.** Which results are given for CC(NCC(F)(F)F)C1CCc2c(cn(C)c2C(=O)Nc2cc(F)c(F)c(F)c2)S(=O)(=O)N1 (single isomer, unassigned) [Compound 218a, 7-methyl-1,1-dioxo-3-[1-(2,2,2-trifluoroethylamino)ethyl]-N-(3,4,5-trifluorophenyl)-2,3,4,5-tetrahydropyrrolo[3,4-f]thiazepine-6-carboxamide]?
**A.** EC50 (HBV; [2]): > 125 nM; CC50 at 4 days [1]: > 25 µM

**Q.** Which EC50 (HBV) does the source give for CC(NCC(F)(F)F)C1CCc2c(cn(C)c2C(=O)Nc2cc(F)c(F)c(F)c2)S(=O)(=O)N1 (single isomer, unassigned) [Compound 218c, 7-methyl-1,1-dioxo-3-[1-(2,2,2-trifluoroethylamino)ethyl]-N-(3,4,5-trifluorophenyl)-2,3,4,5-tetrahydropyrrolo[3,4-f]thiazepine-6-carboxamide] here?
**A.** 6 nM

**Q.** And the CC50 at 4 days [1]?
**A.** > 25 µM

**Q.** With Cc1cc(CC2(C)COc3c(cn(C)c3C(=O)Nc3ccc(F)c(C#N)c3)S(=O)(=O)N2)no1 (single isomer, unassigned) [Compound 220a, N-(3-cyano-4-fluoro-phenyl)-3,7-dimethyl-3-[(5-methylisoxazol-3-yl)methyl]-1,1-dioxo-2,4-dihydropyrrolo[3,4-b][1,4,5]oxathiazepine-6-carboxamide] as the compound, how does the EC50 (HBV) read?
**A.** 7 nM

**Q.** What about the CC50 at 4 days [1] of the same compound?
**A.** > 25 µM

**Q.** For CCC(O)[C@@H]1COc2c(cn(C)c2C(=O)Nc2ccc(F)c(F)c2)S(=O)(=O)N1 (stereo in doubt) [Compound 142b, N-(3,4-difluorophenyl)-3-(1-hydroxypropyl)-7-methyl-1,1-dioxo-3,4-dihydro-2H-pyrrolo[3,4-b][1,4,5]oxathiazepine-6-carboxamide], which EC50 (HBV; [2]) is on record?
**A.** > 125 nM

**Q.** What about the CC50 at 4 days [1] of the same compound?
**A.** > 25 µM

**Q.** For CC1CCCC/C=C/Cc2c(cn(C)c2C(=O)Nc2ccc(F)c(F)c2)S(=O)(=O)N1 (stereo not shown) [Compound 1, (9E)-N-(3,4-difluorophenyl)-4,14-dimethyl-2,2-dioxo-2λ^6-thia-3,14-diazabicyclo[10.3.0]pentadeca-1(15),9,12-triene-13-carboxamide], which EC50 (HBV; [2]) is on record?
**A.** 2740 nM

**Q.** What about the CC50 at 4 days [1] of the same compound?
**A.** > 25 µM

**Q.** With CC1CCC/C=C\Cc2c(cn(C)c2C(=O)Nc2ccc(F)c(F)c2)S(=O)(=O)N1 (stereo not shown) [Compound 2a, 8Z—N-(3,4-difluorophenyl)-4,13-dimethyl-2,2-dioxo-2λ^6-thia-3,13-diazabicyclo[9.3.0]tetradeca-1(14),8,11-triene-12-carboxamide] as the compound, how does the EC50 (HBV; [2]) read?
**A.** 280 nM

**Q.** And the CC50 at 4 days [1]?
**A.** > 25 µM

**Q.** With CC1CCC/C=C/Cc2c(cn(C)c2C(=O)Nc2ccc(F)c(F)c2)S(=O)(=O)N1 (stereo not shown) [Compound 2b, 8E-N-(3,4-difluorophenyl)-4,13-dimethyl-2,2-dioxo-2λ^6-thia-3,13-diazabicyclo[9.3.0]tetradeca-1(14),8,11-triene-12-carboxamide] as the compound, how does the EC50 (HBV; [2]) read?
**A.** 490 nM

**Q.** And the CC50 at 4 days [1]?
**A.** > 25 µM

**Q.** For C[C@@H](N1CC/C=C\c2c(cn(C)c2C(=O)Nc2ccc(F)c(F)c2)S1(=O)=O)C(F)(F)F [Compound 3, (5Z)—N-(3,4-difluorophenyl)-8-methyl-1,1-dioxo-2-[(1R)-2,2,2-trifluoro-1-methyl-ethyl]-3,4-dihydropyrrolo[3,4-g]thiazocine-7-carboxamide], which EC50 (HBV; [2]) is on record?
**A.** > 500 nM

**Q.** What about the CC50 at 4 days [1] of the same compound?
**A.** > 25 µM
